Test results as given in patent US20160375006A1, “USES OF PARALOG-SELECTIVE INHIBITORS OF GSK3 KINASES” (priority 2012, published 2016).
Where two headings read alike, the source gives them in different places.

Experiments:
PKCι = PKCι (Homo sapiens, UniProt P41743)
Description: (§1) This was completed utilizing one of two assays depending on the kinase being examined.
The assay utilized was identical to that of the single point inhibitory activity determination (MSA) but run in dose response.

LTK = LTK (Homo sapiens, UniProt P29376)
Protocol: as §1
(§2) A solution of IMAP binding reagent (IMAP Screening Express kit; Molecular Devices) (60 μL) was added to each well and incubated for 30 minutes.
(§3) A solution of termination buffer (QuickScout Screening assist MSA; Carna Biosciences) (60 μL) was added to each well. The entire reaction mixture was then applied to a LabChip3000 system (Caliper Life Science) and the product and substrate peptide peaks were separated and quantified.
(§4) The assay utilized was identical to that of the single point inhibitory activity determination (MSA) but run in dose response. […] A solution of termination buffer (QuickScout Screening assist MSA; Carna Biosciences) (60 μL) was added to each well. The entire reaction mixture was then applied to a LabChip3000 system (Caliper Life Science) and the product and substrate peptide peaks were separated and quantified.

CaMK2δ = CaMK2δ (Homo sapiens, UniProt Q13557)
Protocol: as §1, §2, §3, §4

MAP3K1_Cascade = MAP3K1_Cascade (Homo sapiens, UniProt Q13233)
Protocol: as §1, §2, §3, §4

PKCβ2 = PKCβ2 (Homo sapiens, UniProt P05771)
Protocol: as §1, §2, §3

TBK1 = TBK1 (Homo sapiens, UniProt Q9UHD2)
Protocol: as §1, §2, §3

FER = FER (Homo sapiens, UniProt P16591)
Protocol: as §1, §2, §3

EML4-ALK = EML4-ALK (Homo sapiens, UniProt Q9UM73)
Protocol: as §1, §2, §3, §4

MAP3K5_Cascade = MAP3K5_Cascade (Homo sapiens, UniProt Q99683)
Protocol: as §1, §2, §3, §4

PAK6 = PAK6 (Homo sapiens, UniProt Q9NQU5)
Protocol: as §1, §2, §3, §4

PKCθ = PKCθ (Homo sapiens, UniProt Q04759)
Protocol: as §1, §2, §3

LYNb = LYNb (Homo sapiens, UniProt P07948)
Protocol: as §1, §2, §3, §4

CaMK4 = CaMK4 (Homo sapiens, UniProt Q16566)
Protocol: as §1, §2, §3, §4

AurC = AurC (Homo sapiens, UniProt Q9UQB9)
Protocol: as §1, §2, §3

CaMK2β = CaMK2β (Homo sapiens, UniProt Q13554)
Protocol: as §1, §2, §3, §4

CSK = CSK (Homo sapiens, UniProt P41240)
Protocol: as §1, §2, §3, §4

QIK = QIK (Homo sapiens, UniProt Q9H0K1)
Protocol: as §1, §2, §3, §4

FGFR1(V561M) = FGFR1(V561M) (Homo sapiens, UniProt P11362, V561M)
Protocol: as §1, §2, §3, §4

IRAK1 = IRAK1 (Homo sapiens, UniProt P51617)
Protocol: as §1, §2, §3, §4

FMS = FMS (Homo sapiens, UniProt P07333)
Protocol: as §1, §2, §3, §4

FLT4 = FLT4 (Homo sapiens, UniProt P35916)
Protocol: as §1, §2, §3, §4

SLK = SLK (Homo sapiens, UniProt Q9H2G2)
Protocol: as §1, §2, §3, §4

PLK3 = PLK3 (Homo sapiens, UniProt Q9H4B4)
Protocol: as §1, §2, §3

PAK2 = PAK2 (Homo sapiens, UniProt Q13177)
Protocol: as §1, §2, §3, §4

PKCζ = PKCζ (Homo sapiens, UniProt Q05513)
Protocol: as §1, §2, §3, §4

PAK1 = PAK1 (Homo sapiens, UniProt Q13153)
Protocol: as §2, §3, §4

DAPK1 = DAPK1 (Homo sapiens, UniProt P53355)
Protocol: as §1, §2, §3, §4

PKCε = PKCε (Homo sapiens, UniProt Q02156)
Protocol: as §1, §2, §3, §4

MER = MER (Homo sapiens, UniProt Q12866)
Protocol: as §1, §2, §3, §4

SPHK2 = SPHK2 (Homo sapiens, UniProt Q9NRA0)
Protocol: as §1, §2, §3, §4

INSR = INSR (Homo sapiens, UniProt P06213)
p38β = p38β (Homo sapiens, UniProt Q15759)
Protocol: as §1, §2, §3, §4

EPHA3 = EPHA3 (Homo sapiens, UniProt P29320)
Protocol: as §1, §2, §3, §4

MAP4K2 = MAP4K2 (Homo sapiens, UniProt Q12851)
Protocol: as §1, §2, §3, §4

HGK = HGK (Homo sapiens, UniProt O95819)
Protocol: as §2, §3, §4

CDK2/CycE1 = CDK2/CycE1 (Homo sapiens, UniProt P24941)
Protocol: as §1, §2, §3, §4

EGFR(T790M) = EGFR(T790M) (Homo sapiens, UniProt P00533, T790M)
Protocol: as §1, §2, §3, §4

MAP2K3_Cascade = MAP2K3_Cascade (Homo sapiens, UniProt P46734)
Protocol: as §1, §2, §3, §4

EGFR(d746-750) = EGFR(d746-750) (Homo sapiens, UniProt P00533, DEL746-750)
Protocol: as §1, §2, §3

Chain of CaMK2β (Q13554 whole entry): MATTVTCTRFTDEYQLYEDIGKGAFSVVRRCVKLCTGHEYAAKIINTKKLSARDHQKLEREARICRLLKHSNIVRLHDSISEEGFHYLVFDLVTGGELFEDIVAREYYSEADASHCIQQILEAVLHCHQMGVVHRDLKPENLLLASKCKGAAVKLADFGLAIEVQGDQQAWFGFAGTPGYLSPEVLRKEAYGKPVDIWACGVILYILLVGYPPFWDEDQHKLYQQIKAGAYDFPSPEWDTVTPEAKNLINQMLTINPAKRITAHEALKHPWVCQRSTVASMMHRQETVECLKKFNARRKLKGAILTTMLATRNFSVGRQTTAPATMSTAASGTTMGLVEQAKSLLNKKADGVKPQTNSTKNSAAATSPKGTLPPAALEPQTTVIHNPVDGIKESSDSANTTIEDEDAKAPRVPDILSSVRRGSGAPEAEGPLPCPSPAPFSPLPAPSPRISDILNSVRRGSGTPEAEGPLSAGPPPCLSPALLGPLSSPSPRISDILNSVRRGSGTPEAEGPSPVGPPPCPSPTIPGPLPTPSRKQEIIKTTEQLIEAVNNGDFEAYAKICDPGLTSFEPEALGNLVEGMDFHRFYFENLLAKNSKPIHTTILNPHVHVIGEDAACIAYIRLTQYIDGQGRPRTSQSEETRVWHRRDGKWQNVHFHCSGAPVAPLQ
Chain of MAP3K1_Cascade (Q13233 whole entry): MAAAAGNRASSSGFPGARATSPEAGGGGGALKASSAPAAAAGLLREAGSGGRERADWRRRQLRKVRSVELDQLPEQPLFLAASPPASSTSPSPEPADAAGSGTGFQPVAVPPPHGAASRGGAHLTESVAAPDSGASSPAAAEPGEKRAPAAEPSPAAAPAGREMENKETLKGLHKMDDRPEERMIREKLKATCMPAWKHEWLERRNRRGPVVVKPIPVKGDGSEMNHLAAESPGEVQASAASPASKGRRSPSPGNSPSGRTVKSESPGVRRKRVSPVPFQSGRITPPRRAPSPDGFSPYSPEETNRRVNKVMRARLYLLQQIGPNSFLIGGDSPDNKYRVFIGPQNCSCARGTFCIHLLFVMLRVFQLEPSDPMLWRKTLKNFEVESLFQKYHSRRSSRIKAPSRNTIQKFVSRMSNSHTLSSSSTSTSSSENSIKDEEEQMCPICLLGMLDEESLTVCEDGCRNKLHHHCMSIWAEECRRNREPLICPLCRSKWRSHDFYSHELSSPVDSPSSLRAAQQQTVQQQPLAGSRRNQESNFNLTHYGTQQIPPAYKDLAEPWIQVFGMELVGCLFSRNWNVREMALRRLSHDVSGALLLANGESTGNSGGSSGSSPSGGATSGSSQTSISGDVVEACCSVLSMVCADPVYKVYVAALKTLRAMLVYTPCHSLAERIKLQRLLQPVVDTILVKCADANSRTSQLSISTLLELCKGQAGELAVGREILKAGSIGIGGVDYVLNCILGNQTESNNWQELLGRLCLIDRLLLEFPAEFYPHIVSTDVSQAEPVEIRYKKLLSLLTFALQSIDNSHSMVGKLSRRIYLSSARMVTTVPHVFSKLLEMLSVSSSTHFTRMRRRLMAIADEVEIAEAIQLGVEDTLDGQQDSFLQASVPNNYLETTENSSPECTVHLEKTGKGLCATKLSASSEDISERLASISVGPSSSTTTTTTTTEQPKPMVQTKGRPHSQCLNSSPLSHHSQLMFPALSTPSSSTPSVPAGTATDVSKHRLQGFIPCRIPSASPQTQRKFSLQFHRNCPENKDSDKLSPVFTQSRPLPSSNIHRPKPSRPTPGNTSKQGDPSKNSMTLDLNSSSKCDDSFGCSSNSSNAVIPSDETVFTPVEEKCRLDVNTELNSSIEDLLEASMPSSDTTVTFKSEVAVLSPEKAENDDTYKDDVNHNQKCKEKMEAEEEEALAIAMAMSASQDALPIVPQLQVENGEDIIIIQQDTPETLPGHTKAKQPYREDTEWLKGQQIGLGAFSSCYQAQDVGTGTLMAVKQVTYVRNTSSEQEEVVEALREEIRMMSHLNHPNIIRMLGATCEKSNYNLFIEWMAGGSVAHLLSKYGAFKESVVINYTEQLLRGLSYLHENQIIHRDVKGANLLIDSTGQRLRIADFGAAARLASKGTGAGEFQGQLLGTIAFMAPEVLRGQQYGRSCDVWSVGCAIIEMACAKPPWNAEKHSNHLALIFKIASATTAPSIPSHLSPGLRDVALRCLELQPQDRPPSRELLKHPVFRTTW
Chain of MAP4K2 (Q12851 whole entry): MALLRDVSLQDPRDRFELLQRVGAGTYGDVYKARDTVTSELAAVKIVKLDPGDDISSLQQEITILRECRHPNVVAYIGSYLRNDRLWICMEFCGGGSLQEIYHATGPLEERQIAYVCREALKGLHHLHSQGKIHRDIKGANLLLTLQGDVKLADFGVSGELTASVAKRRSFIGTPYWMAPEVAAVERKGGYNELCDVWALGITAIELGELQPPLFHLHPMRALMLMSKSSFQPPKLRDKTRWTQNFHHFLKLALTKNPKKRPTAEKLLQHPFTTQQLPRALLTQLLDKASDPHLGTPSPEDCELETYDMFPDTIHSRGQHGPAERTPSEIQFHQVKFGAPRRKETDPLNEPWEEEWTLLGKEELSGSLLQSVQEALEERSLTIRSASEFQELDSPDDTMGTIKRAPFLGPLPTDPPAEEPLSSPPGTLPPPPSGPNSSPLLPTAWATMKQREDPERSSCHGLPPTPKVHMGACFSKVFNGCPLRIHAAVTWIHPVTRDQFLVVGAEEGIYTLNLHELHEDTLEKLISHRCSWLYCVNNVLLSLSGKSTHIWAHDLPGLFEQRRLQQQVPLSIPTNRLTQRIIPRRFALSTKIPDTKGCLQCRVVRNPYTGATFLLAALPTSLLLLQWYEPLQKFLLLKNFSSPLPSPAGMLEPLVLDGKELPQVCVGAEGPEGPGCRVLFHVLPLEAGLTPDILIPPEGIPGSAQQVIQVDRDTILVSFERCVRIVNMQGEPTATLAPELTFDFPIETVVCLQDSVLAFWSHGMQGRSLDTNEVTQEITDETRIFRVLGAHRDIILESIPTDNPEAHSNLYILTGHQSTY
Chain of INSR (P06213 28-1382): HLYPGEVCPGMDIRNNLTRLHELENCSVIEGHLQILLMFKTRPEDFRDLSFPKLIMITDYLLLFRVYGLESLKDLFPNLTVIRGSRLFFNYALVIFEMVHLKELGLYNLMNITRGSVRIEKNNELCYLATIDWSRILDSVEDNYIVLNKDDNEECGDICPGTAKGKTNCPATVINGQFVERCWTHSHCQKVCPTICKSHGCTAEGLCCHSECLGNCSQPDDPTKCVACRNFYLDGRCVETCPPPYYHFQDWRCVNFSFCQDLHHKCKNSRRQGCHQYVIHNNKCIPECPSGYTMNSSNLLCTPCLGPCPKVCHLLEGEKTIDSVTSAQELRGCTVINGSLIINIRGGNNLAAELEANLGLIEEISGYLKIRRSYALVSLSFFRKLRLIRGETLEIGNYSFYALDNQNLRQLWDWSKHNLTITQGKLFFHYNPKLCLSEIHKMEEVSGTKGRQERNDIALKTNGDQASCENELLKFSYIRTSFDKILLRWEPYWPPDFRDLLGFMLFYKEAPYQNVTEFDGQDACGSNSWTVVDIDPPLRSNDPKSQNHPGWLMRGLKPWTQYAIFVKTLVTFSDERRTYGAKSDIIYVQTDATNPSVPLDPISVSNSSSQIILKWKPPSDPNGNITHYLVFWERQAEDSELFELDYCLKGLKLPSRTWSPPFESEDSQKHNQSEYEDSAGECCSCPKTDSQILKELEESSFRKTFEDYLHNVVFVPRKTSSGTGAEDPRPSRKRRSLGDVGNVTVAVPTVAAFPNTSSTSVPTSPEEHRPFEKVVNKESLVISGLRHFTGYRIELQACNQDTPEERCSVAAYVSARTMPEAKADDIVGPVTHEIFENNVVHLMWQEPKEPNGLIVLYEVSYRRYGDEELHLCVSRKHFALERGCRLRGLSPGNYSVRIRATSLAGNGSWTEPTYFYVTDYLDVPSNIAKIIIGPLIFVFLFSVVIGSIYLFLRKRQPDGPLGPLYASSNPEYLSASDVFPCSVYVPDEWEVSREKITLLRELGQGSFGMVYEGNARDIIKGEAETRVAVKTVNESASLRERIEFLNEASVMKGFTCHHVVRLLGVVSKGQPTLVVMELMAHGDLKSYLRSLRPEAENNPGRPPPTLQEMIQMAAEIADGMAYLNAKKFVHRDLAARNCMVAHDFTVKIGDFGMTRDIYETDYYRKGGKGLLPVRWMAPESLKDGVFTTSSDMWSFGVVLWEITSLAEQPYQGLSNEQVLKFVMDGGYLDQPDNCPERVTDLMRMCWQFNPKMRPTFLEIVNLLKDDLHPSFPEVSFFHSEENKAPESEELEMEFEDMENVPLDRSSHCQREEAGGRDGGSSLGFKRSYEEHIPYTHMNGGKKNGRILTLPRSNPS
Chain of PLK3 (Q9H4B4 whole entry): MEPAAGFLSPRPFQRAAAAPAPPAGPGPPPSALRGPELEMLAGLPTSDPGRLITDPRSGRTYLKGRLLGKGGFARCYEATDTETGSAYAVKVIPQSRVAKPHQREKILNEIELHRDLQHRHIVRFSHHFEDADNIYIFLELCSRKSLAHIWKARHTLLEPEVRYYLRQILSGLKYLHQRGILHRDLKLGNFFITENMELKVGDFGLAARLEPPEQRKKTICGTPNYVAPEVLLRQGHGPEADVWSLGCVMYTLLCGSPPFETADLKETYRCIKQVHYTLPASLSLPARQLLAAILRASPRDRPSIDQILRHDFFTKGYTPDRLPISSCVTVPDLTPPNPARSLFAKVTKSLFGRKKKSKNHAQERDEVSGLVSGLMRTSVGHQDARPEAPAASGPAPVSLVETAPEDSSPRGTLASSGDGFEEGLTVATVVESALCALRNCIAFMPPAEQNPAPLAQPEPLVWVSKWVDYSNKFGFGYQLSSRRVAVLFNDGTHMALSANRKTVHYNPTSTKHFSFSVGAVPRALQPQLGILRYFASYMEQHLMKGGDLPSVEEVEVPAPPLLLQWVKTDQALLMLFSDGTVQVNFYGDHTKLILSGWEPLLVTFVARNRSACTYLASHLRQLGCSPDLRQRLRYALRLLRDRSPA
Protocol for MAP3K2_Cascade: as §1, §2, §3, §4

CC[C@@]1(c2ccccc2)C2=C(CC(C)(C)CC2=O)Nc2n[nH]cc21 [BRD0705]
% Inhibition at 10 μM (PKCι): −4.3%
% Inhibition at 10 μM (LTK): −3.6%
% Inhibition at 10 μM (CaMK2δ): −4.4%
% Inhibition at 10 μM (MAP3K1_Cascade): 1.8%
% Inhibition at 10 μM (PKCβ2): −5.7%
% Inhibition at 10 μM (TBK1): 1.7%
% Inhibition at 10 μM (FER): 1.7%
% Inhibition at 10 μM (EML4-ALK): 3.4%
% Inhibition at 10 μM (MAP3K5_Cascade): 1.9%
% Inhibition at 10 μM (PAK6): −10.7%
% Inhibition at 10 μM (PKCθ): −12.0%
% Inhibition at 10 μM (MAP3K2_Cascade): 1.0%
% Inhibition at 10 μM (LYNb): 2.2%
% Inhibition at 10 μM (CaMK4): −7.1%
% Inhibition at 10 μM (AurC): 7.3%
% Inhibition at 10 μM (CaMK2β): −9.0%
% Inhibition at 10 μM (CSK): 0.9%
% Inhibition at 10 μM (QIK): −6.4%
% Inhibition at 10 μM (FGFR1(V561M)): −3.2%
% Inhibition at 10 μM (IRAK1): 3.1%
% Inhibition at 10 μM (FMS): −8.2%
% Inhibition at 10 μM (FLT4): −7.9%
% Inhibition at 10 μM (SLK): −10.7%
% Inhibition at 10 μM (PLK3): −12.5%
% Inhibition at 10 μM (PAK2): 6.4%
% Inhibition at 10 μM (PKCζ): −1.0%
% Inhibition at 10 μM (PAK1): −2.9%
% Inhibition at 10 μM (DAPK1): −6.0%
% Inhibition at 10 μM (PKCε): −4.5%
% Inhibition at 10 μM (MER): −3.3%
% Inhibition at 10 μM (SPHK2): −3.8%
% Inhibition at 10 μM (INSR): −1.4%
% Inhibition at 10 μM (p38β): −2.7%
% Inhibition at 10 μM (EPHA3): 25.2%
% Inhibition at 10 μM (MAP4K2): −0.7%
% Inhibition at 10 μM (HGK): 14.9%
% Inhibition at 10 μM (CDK2/CycE1; CDK2/CycE1): 53.4%
IC50 (CDK2/CycE1; read-out: IC50 CDK2/CycE1): 9.43 µM
% Inhibition at 10 μM (EGFR(T790M)): −4.9%
% Inhibition at 10 μM (MAP2K3_Cascade): 6.7%
% Inhibition at 10 μM (EGFR(d746-750)): −12.0%

CC(C)(C)Cc1[nH]nc2c1[C@](C)(c1ccccc1)C1=C(CC(C)(C)CC1=O)N2 [BRD3731]
% Inhibition 10 μM (PKCι; 10 μM): 2.5%
% Inhibition 10 μM (LTK; 10 μM): −3.5%
% Inhibition 10 μM (CaMK2δ; 10 μM): −0.3%
% Inhibition 10 μM (MAP3K1_Cascade; 10 μM): 4.0%
% Inhibition 10 μM (PKCβ2; 10 μM): 3.8%
% Inhibition 10 μM (TBK1; 10 μM): −0.5%
% Inhibition 10 μM (FER; 10 μM): 6.4%
% Inhibition 10 μM (EML4-ALK; 10 μM): −7.2%
% Inhibition 10 μM (MAP3K5_Cascade; 10 μM): 0.4%
% Inhibition 10 μM (PAK6; 10 μM): −46.8%
% Inhibition 10 μM (PKCθ; 10 μM): 12.1%
% Inhibition 10 μM (MAP3K2_Cascade; 10 μM): −0.7%
% Inhibition 10 μM (LYNb; 10 μM): 2.9%
% Inhibition 10 μM (CaMK4; 10 μM): 12.4%
% Inhibition 10 μM (AurC; 10 μM): 4.9%
% Inhibition 10 μM (CaMK2β; 10 μM): 0.3%
% Inhibition 10 μM (CSK; 10 μM): 1.9%
% Inhibition 10 μM (QIK; 10 μM): −4.1%
% Inhibition 10 μM (FGFR1(V561M); 10 μM): 0.3%
% Inhibition 10 μM (IRAK1; 10 μM): 1.2%
% Inhibition 10 μM (FMS; 10 μM): 5.2%
% Inhibition 10 μM (FLT4; 10 μM): 16.8%
% Inhibition 10 μM (SLK; 10 μM): −1.8%
% Inhibition 10 μM (PLK3; 10 μM): 4.0%
% Inhibition 10 μM (PAK2; 10 μM): 0.0%
% Inhibition 10 μM (PKCζ; 10 μM): 5.0%
% Inhibition 10 μM (PAK1; 10 μM): −18.6%
% Inhibition 10 μM (DAPK1; 10 μM): −3.4%
% Inhibition 10 μM (PKCε; 10 μM): 1.8%
% Inhibition 10 μM (MER; 10 μM): 33.7%
% Inhibition 10 μM (SPHK2; 10 μM): 15.2%
% Inhibition 10 μM (INSR; 10 μM): −2.8%
% Inhibition 10 μM (p38β; 10 μM): −0.2%
% Inhibition 10 μM (EPHA3; 10 μM): 3.0%
% Inhibition 10 μM (MAP4K2; 10 μM): −7.5%
% Inhibition 10 μM (HGK; 10 μM): −3.8%
IC50 (CDK2/CycE1; CDK2/CycE1): 8.8 µM
% Inhibition 10 μM (CDK2/CycE1; CDK2/CycE1, 10 μM): 42.6%
Fold Selectivity (CDK2/CycE1; IC50 CDK2/CycE1 / IC50 GSK3β): 326.9 fold
% Inhibition 10 μM (EGFR(T790M); 10 μM): −4.0%
% Inhibition 10 μM (MAP2K3_Cascade; 10 μM): −8.8%
% Inhibition 10 μM (EGFR(d746-750); 10 μM): 2.5%
